Test results: patent US20220195384A1, “COMPOSITION FOR PROMOTING PRODUCTION OF STEM CELL-DERIVED EXOSOMES AND INCREASING STEMNESS” (BREXOGEN INC., priority 2019, published 2022)

Tests used:
Assay type in all cases: cell-based
[1] = test system: primary umbilical cord-derived mesenchymal stem cells; test: Stem cell proliferation (CCK, absorbance 450 nm) after pretreatment; details: 10 ng/mL interferon-γ pretreatment one week; 24 h culture, CCK 4 h
Experimental: (§1) In a culture medium [high glucose DMEM (Gibco, Cat no. 11995-065); 10% fetal bovine serum (HyClone), 1% MEM non-essential amino acids solution (100×) (Gibco, Cat no. 11140-050)] containing 20 nM of exendin-4, primary umbilical cord-derived mesenchymal stem cells (ATCC No. PCS-500-010; Lot No. 63822428) were cultured for one week.
as §1, with “10” for “20”, “PMA,” for “exendin-4,”
as §1, with “10 ng/mL interferon-γ,” for “20 nM of exendin-4,”
as §1, with “10 μM” for “20 nM”, “tetrandrine,” for “exendin-4,”
as §1, with “10 μg/mL hyaluronic acid,” for “20 nM of exendin-4,”
as §1, with “30” for “20”, “substance P,” for “exendin-4,”
as §1, with “10” for “20”, “resveratrol,” for “exendin-4,”
as §1, with “10 μM” for “20 nM”, “lanifibranor,” for “exendin-4,”
(§2) Mesenchymal stem cells and the exendin-4-pretreated mesenchymal stem cells of the Example were each seeded at a density of 3,000 cells/well into 96-well plates containing 100 μL of a culture medium [high glucose DMEM (Gibco, Cat no. 11995-065), 10% fetal bovine serum (HyClone), 1% MEM non-essential amino acids solution (100×) (Gibco, Cat no. 11140-050)] per well and cultured for 24 hours in a CO2 incubator. Then, CCK solution (10 μL/well) was added, and incubation was continued for 4 hours in the CO2 incubator, followed by reading absorbance at a wavelength of 450 nm (420-480 nm) to determine proliferation.
as §2, with “PMA-pretreated” for “exendin-4-pretreated”, “proliferation. […]” for “proliferation.”

[2] = test system: primary umbilical cord-derived mesenchymal stem cells; test: Number of exosomes by nanoparticle tracking assay (NanoSight NS300); details: 10 ng/mL interferon-γ pretreatment one week
Experimental: as §1
(§3) After completion of culturing, the mesenchymal stem cells pretreated with exendin-4 were washed and additionally cultured for 72 hours in a culture medium supplemented with 10% fetal bovine serum (FBS) free of exosomes. The reason of employing exosome-free FBS was to prevent FBS-derived exosomes other than those secreted from the cells from being incorporated because generally used FBS contained a large amount of exosomes derived from bovine serum.
(§4) After 72 hours of culturing, the culture medium in which the pretreated mesenchymal stem cells were cultured was taken and centrifuged at 300×g for 10 min to remove residual cells and cell debris. The supernatant was filtered through a 0.22 μm filter, followed by centrifugation at 10,000×g and 4° C. for 70 min in a high-speed centrifuge. The supernatant thus obtained was subjected again to ultracentrifugation at 100,000×g and 4° C. for 90 min. The exosomes obtained as a pellet were diluted in PBS (phosphate buffered saline) before use in the following experiments.
as §1, with “10” for “20”, “PMA,” for “exendin-4,”
as §3, with “PMA” for “exendin-4”
as §1, with “10 ng/mL interferon-γ,” for “20 nM of exendin-4,”
as §3, with “interferon-γ” for “exendin-4”
as §1, with “10 μM” for “20 nM”, “tetrandrine,” for “exendin-4,”
as §3, with “tetrandrine” for “exendin-4”, “serum. […]” for “serum.”

[3] = test system: primary umbilical cord-derived mesenchymal stem cells; test: Content of exosomal protein (Bradford analysis, 595 nm); details: 10 ng/mL interferon-γ pretreatment one week
Experimental: as §1, §3, §4
as §1, with “10” for “20”, “PMA,” for “exendin-4,”
as §3, with “PMA” for “exendin-4”
as §1, with “10 ng/mL interferon-γ,” for “20 nM of exendin-4,”
as §3, with “interferon-γ” for “exendin-4”
as §1, with “10 μM” for “20 nM”, “tetrandrine,” for “exendin-4,”
as §3, with “tetrandrine” for “exendin-4”, “serum. […]” for “serum.”

[4] = test system: primary umbilical cord-derived mesenchymal stem cells; test: Content of exosomal RNA (NanoDrop); details: 10 ng/mL interferon-γ pretreatment one week
Experimental: as §1, §3, §4
as §1, with “10” for “20”, “PMA,” for “exendin-4,”
as §3, with “PMA” for “exendin-4”
as §1, with “10 ng/mL interferon-γ,” for “20 nM of exendin-4,”
as §3, with “interferon-γ” for “exendin-4”
as §1, with “10 μM” for “20 nM”, “tetrandrine,” for “exendin-4,”
as §3, with “tetrandrine” for “exendin-4”, “serum. […]” for “serum.”

interferon-γ [IFNγ MSC-Exo = exosomes of IFNγ-treated mesenchymal stem cells]
increase in proliferation relative to non-treated mesenchymal stem cells [1]: about 242%
proliferation ratio relative to non-treated mesenchymal stem cells (1) [1]: 2.42
fold more exosomes than non-treated mesenchymal stem cells [2]: about 6.7 fold
No. of exosome particles, yield per 10^6 cells ([2]; then 72 h exosome-free FBS medium, non-treated 2.3): 15.4 10^9
fold greater exosomal proteins than non-treated mesenchymal stem cells [3]: about 6.2 fold
Exosomal protein, yield per 10^6 cells ([3]; then 72 h exosome-free FBS medium, non-treated 2.0): 12.4 ug
fold greater exosomal RNA than non-treated mesenchymal stem cells [4]: about 5.0 fold
Exosomal RNA, yield per 10^6 cells ([4]; then 72 h exosome-free FBS medium, non-treated 31.0): 155.0 ng
